From ChEMBL document CHEMBL1201862, “PubChem BioAssay data set” (2004) come the findings set out here.

Values joined by “and” are separate entries in the source; they are usually repeats but may differ in a detail not shown here. Equal entries are not always repeated.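 Values below derive from 48-hour exposures of cells grown in 96-well plates, with endpoints linearly interpolated between the two concentrations bracketing the appropriate inhibition level. Here, GI50 denotes the concentration required for 50% inhibition of growth.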 Active and inactive are the calls of the source. Rule as the data show it: active = GI50 up to about 1.1 µM and inactive = higher. Where only a bound is given, the exact number is not on record here.

Among the test systems are A498; A549; BT-549; HCT-116; HOP-62; HT-29; IGROV-1; K562; Malme-3M; NCI-H460; NCI/ADR-RES; OVCAR-4; OVCAR-8; PC-3; SNB-19; SNB-75; SW-620; TK-10; UACC-257; RXF 393.
Common to all, as to assay: DTP human tumour cell line panel, 48 h

One may read the GI50 as the concentration giving 50% growth inhibition. Take `CC(C)c1ccc2nc3ccc(C(=O)NCCN(C)C)cn3c(=O)c2c1`: the GI50 is 14 µM (inactive) in the experiment with A498; 17.4 µM (inactive) with A549; 14.2 µM (inactive) in the experiment on BT-549; 13.9 µM (inactive) in the experiment with HCT-116; 15.3 µM (inactive) in the experiment on HOP-62; 7.74 µM (inactive) in the experiment on HT-29. In addition, the GI50 in the experiment on IGROV-1 is 30.8 µM (inactive); with K562, 2.57 µM (inactive); with Malme-3M, 3.37 µM (inactive); with NCI-H460, 17.6 µM (inactive); in the experiment on NCI/ADR-RES, 18.2 µM (inactive); in the experiment on OVCAR-4, 24.7 µM (inactive). Moreover, the GI50 is 18.8 µM (inactive) in the experiment on OVCAR-8; 13.6 µM (inactive) in the experiment with PC-3; 35 µM (inactive) in the experiment with SNB-19; 10.4 µM (inactive) in the experiment on SNB-75; 14.7 µM (inactive) with SW-620; 17.3 µM (inactive) in the experiment on TK-10. In addition, the GI50 in the experiment on UACC-257 is 12.1 µM (inactive).

On to `CCOc1cc2c(cc1O)CC[C@@H]1[C@@H]2CC[C@]2(C)[C@@H](O)CC[C@@H]12`, for which the GI50 is 2.09 µM (inactive) in the experiment on A498; 0.0378 µM (active) in the experiment with A549; 0.0125 µM (active) in the experiment on BT-549; 0.0234 µM (active) in the experiment on HCT-116; 0.0447 µM (active) in the experiment with HOP-62; 4.88 µM (inactive) in the experiment on HT-29. Moreover, the GI50 in the experiment on IGROV-1 is 1.18 µM (inactive); with K562 it was < 0.0171 µM (active); in the experiment with NCI-H460, 0.0228 µM (active); with NCI/ADR-RES, 0.0173 µM (active); with OVCAR-4, 12.4 µM (inactive); in the experiment with OVCAR-8, 0.109 µM (active). The GI50 was 1.62 µM (inactive) in the experiment with PC-3; 0.0387 µM (active) in the experiment with RXF 393; 0.0334 µM (active) with SNB-19; 0.0168 µM (active) in the experiment on SNB-75; 0.0183 µM (active) with SW-620; < 0.01 µM (active) in the experiment with UACC-257.

Take `CCC(C)C1=C(O)[N+]2([O-])Oc3ccc(-c4c(O)c(O)c(-c5ccc(OC(C)=O)cc5)c(OC(C)=O)c4OC(C)=O)cc3OC2(C(C)CC)C(=O)N1O` (stereo not given): the GI50 in the experiment with A498 is 19.3 µM (inactive); with A549 it was > 50 µM (inactive) and 29.2 µM (inactive); in the experiment with BT-549, 45.6 µM (inactive); in the experiment on HOP-62, > 50 µM (inactive); with HT-29, > 50 µM (inactive); in the experiment with IGROV-1 it was 25.6 µM (inactive) and 17.1 µM (inactive). The GI50 is 28.8 µM (inactive) and 15.4 µM (inactive) in the experiment with K562; 34.6 µM (inactive) and 45.2 µM (inactive) in the experiment on Malme-3M; > 50 µM (inactive) in the experiment on NCI-H460; > 50 µM (inactive) in the experiment with NCI/ADR-RES; 12.9 µM (inactive) and 14.9 µM (inactive) in the experiment on OVCAR-4; > 50 µM (inactive) with OVCAR-8. The GI50 in the experiment with PC-3 is > 50 µM (inactive); in the experiment on RXF 393 it was > 50 µM (inactive); in the experiment with SNB-19, > 50 µM (inactive); in the experiment with SW-620, 24.2 µM (inactive); with TK-10 it was > 50 µM (inactive); in the experiment with UACC-257, > 50 µM (inactive).

Turning to `COc1ccc(CCNC(=O)Cc2cc(OC)c(OC)cc2CO)cc1OC`, the GI50 with A498, in the experiment with A549, in the experiment on BT-549, in the experiment on HCT-116, with HOP-62 and in the experiment with HT-29 was > 100 µM (inactive) in each case. For the same compound, the GI50 in the experiment on IGROV-1, in the experiment with K562, in the experiment with NCI-H460, in the experiment with NCI/ADR-RES, in the experiment on OVCAR-4 and in the experiment on OVCAR-8 was > 100 µM (inactive) each time. Moreover, the GI50 in the experiment with PC-3, with RXF 393, in the experiment with SNB-75, with SW-620, in the experiment on TK-10 and in the experiment on UACC-257 was > 100 µM (inactive) throughout.

On to `Cc1cc2c(C)cc(=O)[nH]c2cc1N`, for which the GI50 in the experiment on A498 was > 100 µM (inactive); with A549, > 100 µM (inactive); with BT-549, > 100 µM (inactive); in the experiment on HCT-116, > 100 µM (inactive); in the experiment with HOP-62, > 100 µM (inactive); with HT-29, 81.1 µM (inactive). Also, the GI50 in the experiment with IGROV-1 is > 100 µM (inactive); in the experiment with K562, > 100 µM (inactive); with NCI-H460 it was 65.5 µM (inactive); with NCI/ADR-RES it was > 100 µM (inactive); with OVCAR-4, > 100 µM (inactive); in the experiment with OVCAR-8, > 100 µM (inactive). In addition, the GI50 was 34.8 µM (inactive) in the experiment on PC-3; > 100 µM (inactive) in the experiment with RXF 393; > 100 µM (inactive) with SNB-19; 84.3 µM (inactive) with SNB-75; > 100 µM (inactive) in the experiment on SW-620; > 100 µM (inactive) with UACC-257.

For the compound `O=C1C/C(=C\O)C(=O)c2ccccc2N1`, the GI50 in the experiment on A498, with A549, in the experiment with BT-549, with HCT-116, in the experiment with HOP-62 and with HT-29 was > 100 µM (inactive) each time. The GI50 with IGROV-1, with K562, with Malme-3M, with NCI-H460, with NCI/ADR-RES and in the experiment on OVCAR-4 was > 100 µM (inactive) each time. For the same compound, the GI50 in the experiment with OVCAR-8, with PC-3, with RXF 393, in the experiment with SNB-19, in the experiment with TK-10 and in the experiment on UACC-257 was > 100 µM (inactive) in each case.

On to `O=S(=O)(O)c1c(Cl)cc(O)c2ncccc12`, for which the GI50 with A498, in the experiment with A549, with BT-549, with HCT-116, in the experiment on HOP-62 and in the experiment on HT-29 was > 100 µM (inactive) each time. Besides, the GI50 in the experiment on IGROV-1, in the experiment on K562, in the experiment with NCI-H460, with NCI/ADR-RES, with OVCAR-4 and with OVCAR-8 was > 100 µM (inactive) in each case. For the same compound, the GI50 with PC-3, in the experiment on RXF 393, in the experiment on SNB-19, in the experiment on SNB-75, in the experiment with SW-620 and in the experiment with UACC-257 was > 100 µM (inactive) in each case.

For `O=C(NN1C(=O)C(Cl)C1c1ccc(Cl)cc1)c1c(Cl)c(Cl)c(Cl)c(Cl)c1-c1nc2ccccc2[nH]1` (stereo not given), the GI50 is 24.8 µM (inactive) in the experiment on A498; 26.4 µM (inactive) in the experiment on A549; 24.4 µM (inactive) in the experiment with BT-549; 15.5 µM (inactive) with HCT-116; 40.2 µM (inactive) in the experiment with HOP-62; 25.2 µM (inactive) with HT-29. The GI50 with IGROV-1 is 3.61 µM (inactive); with K562, 20.1 µM (inactive); with Malme-3M, 21.1 µM (inactive); in the experiment on NCI-H460 it was 16.7 µM (inactive); with NCI/ADR-RES, 33 µM (inactive); in the experiment with OVCAR-8, 17.8 µM (inactive). Further, the GI50 with PC-3 is 25.6 µM (inactive); in the experiment with RXF 393 it was 2.23 µM (inactive); in the experiment with SNB-19 it was 36.1 µM (inactive); in the experiment with SNB-75, 19.2 µM (inactive); in the experiment with SW-620, 23.1 µM (inactive); in the experiment with UACC-257 it was 25.2 µM (inactive).
